The target of this assay is BSA (Bos taurus, UniProt P02769). Description: biochemical.

Structures are written as SMILES.

BSA, sequence (P02769 25-607): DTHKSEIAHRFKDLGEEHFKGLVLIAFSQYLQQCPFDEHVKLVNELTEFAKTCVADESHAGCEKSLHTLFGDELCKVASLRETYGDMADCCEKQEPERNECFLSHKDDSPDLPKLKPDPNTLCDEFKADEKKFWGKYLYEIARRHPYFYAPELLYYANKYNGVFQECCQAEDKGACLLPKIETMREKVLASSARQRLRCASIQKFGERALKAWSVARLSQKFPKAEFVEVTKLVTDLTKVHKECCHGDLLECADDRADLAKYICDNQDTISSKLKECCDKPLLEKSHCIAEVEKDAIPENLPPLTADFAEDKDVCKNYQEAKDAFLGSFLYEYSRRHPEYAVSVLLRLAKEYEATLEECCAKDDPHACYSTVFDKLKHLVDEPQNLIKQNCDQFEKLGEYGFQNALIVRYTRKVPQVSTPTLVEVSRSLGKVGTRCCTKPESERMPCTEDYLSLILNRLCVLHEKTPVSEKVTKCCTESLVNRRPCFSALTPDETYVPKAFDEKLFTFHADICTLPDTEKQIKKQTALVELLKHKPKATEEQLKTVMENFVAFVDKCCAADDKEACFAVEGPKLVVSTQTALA

For `C=CC1=C(C)C2=Cc3c(C=C)c(C)c4[n]3[Fe]([Cl])[n]3c(c(C)c(CCC(=O)O)c3=CC3=NC(=C4)C(C)=C3CCC(=O)O)=CC1=N2` [hemin], the dissociation constant (Kd) (usually a measure of binding affinity in units of concentration) was 1780 ± 20 nM.
